We go through one compound from patent EP4818176A1, “TETRACYCLIC DERIVATIVE INHIBITOR, AND PREPARATION METHOD AND USE THEREFOR” (Shanghai Hansoh Biomedical Co., Ltd., priority 2023, dated 2025).

As usually defined, the ΔTm is the shift of the melting midpoint relative to a reference. For orientation: IC50 means the concentration that inhibits the measured activity by half. Usually AUC(0-inf) stands for total exposure, with the tail of the curve extrapolated. What is called half-life is the time needed for the level to fall by half in the phase considered. A lower half-life goes with rapid decline. For orientation: Cmax means the peak of the concentration-time curve. For orientation: Tmax means the time at which the peak concentration occurs.

Series [1] concerns the target T1, PRMT5/MEP50-MTA protein complex (Homo sapiens, UniProt O14744).
T1 construct: purchased Viva Biotech
Put plainly: Thermal shift assay: thermal stability (melting temperature) of PRMT5/MEP50-MTA protein complex. The format is binding. As to conditions: final compound concentration 8 µM; 2 µM PRMT5/MEP50, 2 µM MTA; Tm minus Tm of DMSO vehicle control. The method in brief:
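Human PRMT5/MEP50 (2 µM) was preincubated 30 min with 2 µM MTA in 50 mM HEPES, 10 mM DTT, 250 mM NaCl with SYPRO Orange. Compound at 8 µM final (2.5% DMSO vehicle) was added for 10 minutes, then samples were heated 25°C to 95°C at 0.03°C/s. Tm was derived from the melt curve.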

The test system of the next series is HCT116 wild-type cells. Put plainly: Cell proliferation inhibition (CellTiter-Glo), HCT116 wild-type cells. The format is cell-based. As to conditions: Homo sapiens, HCT-116, read-out: HCT116 IC50. The essentials:
(§1)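 Cells were grown in McCoy's 5A with 10% FBS, adhered overnight, then exposed to serial compound dilutions for 72-240 h at 37°C, 5% CO2, with a vehicle control. Viability was read as CellTiter-Glo luminescence, and IC50 came from nonlinear regression of inhibition rate against concentration.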
A general note: Cellular ATP, detected with luciferase, serves as a proxy for viable cell number.

Series [2] relates to MTAP Knockout HCT116 cells. Put plainly: Cell proliferation inhibition (CellTiter-Glo), HCT116 MTAP knockout cells. The format is cell-based. The essentials:
as §1

Series [3] can be described thus: Pharmacokinetics in rats (plasma) after oral administration. Format: in vivo. As to conditions: rat, po, SD rats, p.o. 5 mg/kg.
Protocol: Test Example 4: Determination of the pharmacokinetics of the compounds of the present invention in rats (plasma) after oral administration.
1 Study objective: SD rats were used as test animals to study the pharmacokinetic behaviour of the following example compounds in rats (plasma) after oral administration at a dose of 5 mg/kg. 2 Test scheme • 2.1 Test drugs: Vehicle formula: 0.5% CMC-Na (1% Tween 80); the examples of the present invention, made in house. • 2.2 Test animals: 3 SD rats per group, male, purchased from Shanghai Bikai Keyi Biotechnology Co., Ltd., with animal license number (SCXK (Shanghai) 2018-0006, No.20180006037467). • 2.3 Administration: 3 SD rats per group, male, were fasted overnight and then respectively administered PO at a dose of 5 mg/kg and a volume of 10 mL/kg. • 2.4 Sample collection: 0.2 mL of blood was collected from the jugular vein of rats before administration and at 0, 0.25, 0.5, 1, 2, 4, 6, 8 and 24 h after administration, and placed in EDTA-K2test tubes, and the test tubes were centrifuged at 6,000 rpm at 4°C for 6 min to separate the plasma, which was stored at -80°C. The animals were fed 4 h after administration. • 2.5 Sample treatment • 1) 160 uL of acetonitrile was added to 40 uL of plasma sample for precipitation, and after mixing, the mixture was centrifuged at 3,500 × g for 5-20 minutes. • 2) 100 uL of the treated supernatant solution was taken for LC/MS/MS analysis to determine the concentration of the test compounds. • 2.6 Liquid phase analysis • Liquid phase conditions: Shimadzu LC-20AD pump;mass spectrometry conditions: AB Sciex API 4000 mass spectrometer • Chromatographic column: Phenomenex Gemiu 5 um C18 50 × 4.6 mm • Mobile phase: solution A: 0.1% formic acid in water, solution B: methanol • Flow rate: 1.0 mL/min, elution time: 0-4.0 min, with eluents as follows:
Experimental results and analysis: The main pharmacokinetic parameters were calculated using WinNonlin 8.2.
The target of another series is hERG potassium channel (Homo sapiens, UniProt Q12809). Put plainly: hERG potassium channel inhibitory activity assay (CHO-hERG cells, tail current). The format is cell-based. The note with it: inhibition of tail current, read-out: inhibitory activity (IC50) against the cardiac hERG potassium channel. The source says:
Test Example 5: hERG potassium channel inhibitory activity assay
1 Study objective: The objective of this test example is to determine the inhibitory effect of the compound on the hERG potassium channel activity. 2 Experimental instruments and reagents: 2.1 Reagents
3. Experimental method • 3.1 Cell culture: The CHO cells stably expressing the hERG potassium channel (CHO-hERG) used in the experiment were obtained from Sophion Bioscience (Ballerup, Denmark), and passaged and cryopreserved at WuXi AppTec Co., Ltd. in Shanghai. The CHO-hERG cells were cultured and passaged in Ham's F-12 medium containing 1 × GlutaMAX, 10% foetal bovine serum, 100 µg/mL G418 and 100 µg/mL hygromycin B at 37°C with 5% CO2. • 3.2 Preparation of intracellular and extracellular solutions: The extracellular solution was prepared once a month, and aliquoted and stored in 1 L storage bottles. The intracellular solution was prepared once every three months, and aliquoted and cryopreserved at -20°C. The intracellular solution was thawed in a 37°C water bath before the experiment and then placed in an ice bath for later use. • 3.3 Preparation of compounds: The positive control drug amitriptyline hydrochloride and the compounds were dissolved in 100% DMSO (Sigma-Aldrich, D2650) to prepare 10 mM or 30 mM stock solutions. Before the experiment, the stock solutions of the test compounds were diluted with DMSO to prepare solutions 1000-fold or 333-fold higher than the desired test concentrations, and then further diluted 1000-fold or 333-fold with the extracellular solution to achieve the desired concentrations. • 3.4 Cell preparation: The CHO-hERG cells used in the experiment were cultured for at least two days. When the cell density reached more than 75%, the cells were digested with TrypLE, then resuspended in the extracellular solution, and centrifuged. The supernatant was discarded, and then the cells were further resuspended in 2 mL of extracellular solution for later use. • 3.4 Experimental data processing: In data processing, the peak tail current was baseline-corrected when evaluating the hERG blocking effect. The effect of each compound at various concentrations was expressed as the inhibition rate of the tail current. IC50 values were obtained by fitting the data to the Hill equation: I/Icontrol =Bottom + (Top-Bottom)/(1+10^((LogIC50-X) * HillSlope)) • Top: maximum effect; Bottom: minimum effect; Hillslope: slope; X: concentration of the test compound. • IC50: half-maximal inhibitory concentration of the test compound on hERG.
In general terms: hERG is a cardiac potassium channel; its block is linked to QT prolongation.

T1 sequence (O14744 whole entry): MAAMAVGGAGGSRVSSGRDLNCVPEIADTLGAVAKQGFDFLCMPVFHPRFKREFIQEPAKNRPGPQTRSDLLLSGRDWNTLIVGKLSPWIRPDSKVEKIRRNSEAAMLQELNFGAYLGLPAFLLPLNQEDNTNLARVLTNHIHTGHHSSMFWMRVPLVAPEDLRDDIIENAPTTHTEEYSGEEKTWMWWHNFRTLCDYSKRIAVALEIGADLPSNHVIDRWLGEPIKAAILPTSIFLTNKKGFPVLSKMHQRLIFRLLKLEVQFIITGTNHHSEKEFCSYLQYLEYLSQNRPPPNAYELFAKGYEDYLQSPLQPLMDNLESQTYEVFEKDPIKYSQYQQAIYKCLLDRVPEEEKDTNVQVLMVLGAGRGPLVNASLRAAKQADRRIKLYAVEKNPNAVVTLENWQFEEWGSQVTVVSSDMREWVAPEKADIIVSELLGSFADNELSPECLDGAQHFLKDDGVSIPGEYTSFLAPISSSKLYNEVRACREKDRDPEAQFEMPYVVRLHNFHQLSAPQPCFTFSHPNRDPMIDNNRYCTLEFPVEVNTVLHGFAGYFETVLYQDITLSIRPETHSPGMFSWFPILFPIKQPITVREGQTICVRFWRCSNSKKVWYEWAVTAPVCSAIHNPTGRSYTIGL
T1 sequence (Q9BQA1 whole entry partner): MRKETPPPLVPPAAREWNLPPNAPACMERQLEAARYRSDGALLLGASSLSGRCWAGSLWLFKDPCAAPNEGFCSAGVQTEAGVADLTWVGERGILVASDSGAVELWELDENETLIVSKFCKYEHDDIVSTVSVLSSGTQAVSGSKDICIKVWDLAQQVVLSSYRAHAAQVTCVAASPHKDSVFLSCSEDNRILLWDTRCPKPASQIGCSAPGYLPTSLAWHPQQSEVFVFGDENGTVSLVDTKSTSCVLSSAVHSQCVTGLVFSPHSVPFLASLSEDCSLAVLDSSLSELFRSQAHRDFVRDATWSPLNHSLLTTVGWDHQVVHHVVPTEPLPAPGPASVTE
Chain of hERG potassium channel (Q12809 whole entry): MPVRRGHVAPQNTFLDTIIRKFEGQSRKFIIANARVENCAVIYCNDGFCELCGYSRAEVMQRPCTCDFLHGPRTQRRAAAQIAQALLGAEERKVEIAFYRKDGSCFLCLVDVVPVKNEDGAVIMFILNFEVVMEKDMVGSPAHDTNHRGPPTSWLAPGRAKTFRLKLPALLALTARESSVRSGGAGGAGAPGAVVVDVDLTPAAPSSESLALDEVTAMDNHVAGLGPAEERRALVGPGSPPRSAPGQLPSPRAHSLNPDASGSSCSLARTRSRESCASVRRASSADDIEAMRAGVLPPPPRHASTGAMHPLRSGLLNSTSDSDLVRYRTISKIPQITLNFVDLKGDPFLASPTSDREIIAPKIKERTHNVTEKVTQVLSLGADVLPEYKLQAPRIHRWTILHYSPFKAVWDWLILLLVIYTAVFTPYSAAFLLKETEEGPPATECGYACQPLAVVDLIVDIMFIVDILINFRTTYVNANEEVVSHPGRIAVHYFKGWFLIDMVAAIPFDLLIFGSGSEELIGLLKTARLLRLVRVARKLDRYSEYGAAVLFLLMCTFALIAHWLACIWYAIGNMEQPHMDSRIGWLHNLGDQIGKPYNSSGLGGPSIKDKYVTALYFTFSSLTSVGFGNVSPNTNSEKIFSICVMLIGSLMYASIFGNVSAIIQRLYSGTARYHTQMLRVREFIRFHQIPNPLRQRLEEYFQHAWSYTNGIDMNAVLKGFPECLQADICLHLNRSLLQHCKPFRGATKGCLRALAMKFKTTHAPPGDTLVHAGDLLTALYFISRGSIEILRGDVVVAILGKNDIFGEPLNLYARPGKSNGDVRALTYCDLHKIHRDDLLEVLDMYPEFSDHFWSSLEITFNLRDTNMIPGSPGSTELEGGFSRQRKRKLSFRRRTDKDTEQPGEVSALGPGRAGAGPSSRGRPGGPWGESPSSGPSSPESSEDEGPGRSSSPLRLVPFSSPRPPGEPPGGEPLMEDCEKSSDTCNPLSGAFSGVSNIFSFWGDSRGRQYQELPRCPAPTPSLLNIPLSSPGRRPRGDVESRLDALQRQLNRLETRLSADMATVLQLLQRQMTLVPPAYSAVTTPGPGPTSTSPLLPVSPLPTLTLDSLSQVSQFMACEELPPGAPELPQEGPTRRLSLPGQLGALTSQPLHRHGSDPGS

Take `Nc1nc2cc3c(cc2c2c1COC2)C(=O)N(Cc1ccc(C(F)(F)F)cn1)CCCOC3` [Example 178, 4-Amino-12-((5-(trifluoromethyl)pyridin-2-yl)methyl)-3,7,9,10,11,12-hexahydrofuro[3,4-c][1,5]oxazolino[7,8-g]quinolin-13(1H)-one]: the ΔTm at 8 µM in series [1] was 11.2 °C. Besides, the IC50 in the series on HCT116 wild-type cells is 2380 nM; in series [2] (Homo sapiens, HCT-116, read-out: MTAP Knockout HCT116 IC50), 18 nM; on hERG potassium channel, greater than 30 µM. The Selectivity in series [2] (HCT116 IC50 versus MTAP Knockout HCT116 IC50) was found to be 131. The compound further registered an AUC(0-inf) in series [3] of 2790 ng·h/mL. Further, in series [3], the half-life is 114 min. In addition, the peak concentration (Cmax) in series [3] (read-out: Cmax) was found to be 544 ng/mL. Moreover, the MRT inf in series [3] (read-out: MRT0-∞) turned out to be 3.7 h. Further, in series [3] (read-out: tmax), the Tmax came to 1.7 h.
